Experimental data reported in patent US7550456B2, “Substituted aryl cycloalkanoyl derivatives and methods of their use” (Wyeth, priority 2003, dated 2009).
Where a name gives a salt, the structure may show the parent alone.

The compounds below were run against T1, human hNET (Homo sapiens, UniProt P23975) (assay: Norepinephrine (NE) uptake assay in MDCK-Net6 cells). Conditions: 1 μM test compound, [3H]NE uptake, dihydrochloride, 1 µM.
T1 construct: expressed in transfected cells; host or cells: MDCK-Net6 (MDCK cells, stably transfected)
T1 sequence (P23975 whole entry): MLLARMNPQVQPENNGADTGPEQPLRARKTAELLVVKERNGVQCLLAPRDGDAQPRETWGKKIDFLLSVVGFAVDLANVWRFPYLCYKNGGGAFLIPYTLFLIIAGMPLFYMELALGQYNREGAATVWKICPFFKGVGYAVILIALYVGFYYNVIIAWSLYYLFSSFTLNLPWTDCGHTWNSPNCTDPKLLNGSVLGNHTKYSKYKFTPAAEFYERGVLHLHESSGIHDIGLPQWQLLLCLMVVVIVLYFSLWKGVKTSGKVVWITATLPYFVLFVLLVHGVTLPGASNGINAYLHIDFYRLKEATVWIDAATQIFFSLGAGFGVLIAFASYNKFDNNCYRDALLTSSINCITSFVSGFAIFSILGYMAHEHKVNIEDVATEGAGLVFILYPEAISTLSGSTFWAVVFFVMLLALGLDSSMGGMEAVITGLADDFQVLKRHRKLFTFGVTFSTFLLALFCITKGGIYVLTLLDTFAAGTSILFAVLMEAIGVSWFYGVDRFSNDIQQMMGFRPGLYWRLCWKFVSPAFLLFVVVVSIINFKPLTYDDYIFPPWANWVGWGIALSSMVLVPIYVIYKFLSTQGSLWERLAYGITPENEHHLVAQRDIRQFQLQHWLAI
Format: cell-based
Outline: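 Radiolabelled NE uptake was counted by scintillation after NaOH lysis, with 1 µM desipramine defining non-specific uptake. EC50 came from a logistic dose-response fit.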

`OC1([C@H](CN2CCNCC2)c2cccc(OC(F)(F)F)c2)CCCCC1` [Example 243, 1-{(1S)-2-piperazin-1-yl-1-[3-(trifluoromethoxy)phenyl]ethyl}cyclohexanol dihydrochloride] was tested, and the “% Inhibition @ 1 μM (hNET)” value was 91%.

Same assay, conditions: 1 μM test compound, [3H]NE uptake, read-out: % Inhibition @ 1 μM (hNET)

Point of comparison: `CN1CCN(CC(c2ccc(-c3cccc([N+](=O)[O-])c3)cc2)C2(O)CCCCC2)CC1` (centres unmarked) [Example 178, 1-[2-(4-methylpiperazin-1-yl)-1-(3′-nitro-1,1′-biphenyl-4-yl)ethyl]cyclohexanol dihydrochloride], inhibition at 1 µM 33%. Against it:
- CN1CCN(CC(c2ccc(CCc3ccccc3)cc2)C2(O)CCCCC2)CC1 (centres unmarked) [Example 410, 1-{2-(4-methylpiperazin-1-yl)-1-[4-(2-phenylethyl)phenyl]ethyl}cyclohexanol dihydrochloride] — higher, 51%
- CN1CCN(CC(c2ccc(-c3ccc(Cl)c(Cl)c3)cc2)C2(O)CCC2)CC1 (centres unmarked) [Example 296, 1-[1-(3′,4′-dichloro-1,1′-biphenyl-4-yl)-2-(4-methylpiperazin-1-yl)ethyl]cyclobutanol dihydrochloride] — lower, 13%
- OC1(C(CN2CCNCC2)c2ccc(OCCc3ccc(F)cc3)cc2)CCCCC1 (centres unmarked) [Example 462, 1-(1-{4-[2-(4-fluorophenyl)ethoxy]phenyl}-2-piperazin-1-ylethyl)cyclohexanol dihydrochloride] — higher, 47%
- CC(C)(O)CN1CCN(CC(c2cccc(OC(F)(F)F)c2)C2(O)CCCCC2)CC1 (single isomer, unassigned) [Example 372, 1-{2-[4-(2-hydroxy-2-methylpropyl)piperazin-1-yl]-1-[3-(trifluoromethoxy)phenyl]ethyl}cyclohexanol dihydrochloride] — higher, 37%
- CN1CCN(CC(c2ccc(-c3cccc(Cl)c3)cc2)C2(O)CCCCC2)CC1 (centres unmarked) [Example 176, 1-[1-(3′-chloro-1,1′-biphenyl-4-yl)-2-(4-methylpiperazin-1-yl)ethyl]cyclohexanol dihydrochloride] — lower, 28%
- CN1CCN(CC(c2ccc(OCc3ccccc3C(F)(F)F)cc2)C2(O)CCCCC2)CC1 (centres unmarked) [Example 441, 1-[2-(4-methylpiperazin-1-yl)-1-(4-{[2-(trifluoromethyl)benzyl]oxy}phenyl)ethyl]cyclohexanol dihydrochloride] — the same, 33%
- C[C@@H]1CN(C[C@H](c2cccc(OC(F)(F)F)c2)C2(O)CCCCC2)CCN1 [Example 369, 1-{(1S)-2-[(3R)-3-methylpiperazin-1-yl]-1-[3-(trifluoromethoxy)phenyl]ethyl}cyclohexanol dihydrochloride] — higher, 90%
- COc1ccccc1COc1ccc(C(CN2CCNCC2)C2(O)CCCCC2)cc1Cl (centres unmarked) [Example 456, 1-(1-{3-chloro-4-[(2-methoxybenzyl)oxy]phenyl}-2-piperazin-1-ylethyl)cyclohexanol dihydrochloride] — higher, 90%
- N#Cc1cc(C(CN2CCNCC2)C2(O)CCCCC2)ccc1OCc1ccccc1 (centres unmarked) [Example 266, 2-(benzyloxy)-5-[1-(1-hydroxycyclohexyl)-2-piperazin-1-ylethyl]benzonitrile dihydrochloride] — higher, 91%
- CN1CCN(CC(c2ccc(OCc3ccc(Br)cc3F)cc2)C2(O)CCCCC2)CC1 (centres unmarked) [Example 435, 1-[1-{4-[(4-bromo-2-fluorobenzyl)oxy]phenyl}-2-(4-methylpiperazin-1-yl)ethyl]cyclohexanol dihydrochloride] — higher, 85%
- CN1CCN(CC(c2cccc(C#N)c2)C2(O)CCCCC2)CC1 (centres unmarked) [Example 161, 1-[1-(3-cyanophenyl)-2-(4-methylpiperazin-1-yl)ethyl]cyclohexanol dihydrochloride] — higher, 70%
- CN1CCN(CC(c2ccc(OCCc3ccccc3)cc2)C2(O)CCCCC2)CC1 (centres unmarked) [Example 460, 1-{2-(4-methylpiperazin-1-yl)-1-[4-(2-phenylethoxy)phenyl]ethyl}cyclohexanol dihydrochloride] — higher, 82%
- CC[C@H]1CN(C[C@H](c2cccc(OC(F)(F)F)c2)C2(O)CCCCC2)CCN1C [Example 351, 1-{(1S)-2-[(3S)-3-ethyl-4-methylpiperazin-1-yl]-1-[3-(trifluoromethoxy)phenyl]ethyl}cyclohexanol dihydrochloride] — higher, 61%
- OC1(C(CN2CCNCC2)c2ccc(OCc3ccc(C(F)(F)F)cc3)cc2)CCCCC1 (centres unmarked) [Example 436, 1-[2-piperazin-1-yl-1-(4-{[4-(trifluoromethyl)benzyl]oxy}phenyl)ethyl]cyclohexanol dihydrochloride] — higher, 63%
- OC1(C(CN2CCNCC2)c2cccc(-c3ccc(C(F)(F)F)cc3)c2)CCCCC1 (centres unmarked) [Example 249, 1-{2-piperazin-1-yl-1-[4′-(trifluoromethyl)-1,1′-biphenyl-3-yl]ethyl}cyclohexanol dihydrochloride] — lower, 32%
- CC#Cc1cccc(C(CN2CCNCC2)C2(O)CCCCC2)c1 (centres unmarked) [Example 300, 1-[2-piperazin-1-yl-1-(3-prop-1-ynylphenyl)ethyl]cyclohexanol dihydrochloride] — higher, 38%
- Cc1ccc(COc2ccc(C(CN3CCN(C)CC3)C3(O)CCCCC3)cc2F)cc1 (centres unmarked) [Example 418, 1-[1-(3-fluoro-4-{[4-(methyl)benzyl]oxy}phenyl)-2-(4-methylpiperazin-1-yl)ethyl]cyclohexanol dihydrochloride] — higher, 71%
- OC1([C@H](CN2CCN3CCCCC3C2)c2cccc(OC(F)(F)F)c2)CCCCC1 (stereo partly drawn) [Example 371, 1-{(1S)-2-(octahydro-2H-pyrido[1,2-a]pyrazin-2-yl)-1-[3-(trifluoromethoxy)phenyl]ethyl}cyclohexanol dihydrochloride] — higher, 78%
- OC1([C@@H](CN2CCNCC2)c2ccc(OCc3ccccc3)c(Cl)c2)CCCCC1 [Example 323, 1-{(1R)-1-[4-(benzyloxy)-3-chlorophenyl]-2-piperazin-1-ylethyl}cyclohexanol dihydrochloride] — higher, 95.8%
- CC#Cc1cccc(C(CN2CCN(C)CC2)C2(O)CCCCC2)c1 (centres unmarked) [Example 301, 1-[2-(4-methylpiperazin-1-yl)-1-(3-prop-1-ynylphenyl)ethyl]cyclohexanol dihydrochloride] — lower, 23%
- OC1(C(CN2CCNCC2)c2cccc(-c3ccc(Cl)c(Cl)c3)c2)CCC1 (centres unmarked) [Example 153, 1-[1-(3′,4′-dichloro-1,1′-biphenyl-3-yl)-2-piperazin-1-ylethyl]cyclobutanol dihydrochloride] — lower, 2%
- OC1(C(CN2CCNCC2)c2cccc(-c3cccc(Cl)c3)c2)CCCCC1 (centres unmarked) [Example 139, 1-[1-(3′-chloro-1,1′-biphenyl-3-yl)-2-piperazin-1-ylethyl]cyclohexanol dihydrochloride] — higher, 45%
- CC#Cc1ccc(C(CN2CCNCC2)C2(O)CCCCC2)cc1 (centres unmarked) [Example 164, 1-[2-piperazin-1-yl-1-(4-prop-1-ynylphenyl)ethyl]cyclohexanol dihydrochloride] — higher, 56%
- COc1cc(C(CN2CCNCC2)C2(O)CCCCC2)ccc1OCc1ccccc1 (centres unmarked) [Example 442, 1-{1-[4-(benzyloxy)-3-methoxyphenyl]-2-piperazin-1-ylethyl}cyclohexanol dihydrochloride] — higher, 57%
- OC1(C(CN2CCNCC2)c2ccc(-c3cccc(Cl)c3)cc2)CCC1 (centres unmarked) [Example 182, 1-[1-(3′-chloro-1,1′-biphenyl-4-yl)-2-piperazin-1-ylethyl]cyclobutanol dihydrochloride] — higher, 43%
- OC1(C(CN2CCNCC2)c2ccc(-c3cc(Cl)ccc3Cl)cc2)CCCCC1 (centres unmarked) [Example 291, 1-[1-(2′,5′-dichloro-1,1′-biphenyl-4-yl)-2-piperazin-1-ylethyl]cyclohexanol dihydrochloride] — higher, 40%
- CN1CCN(CC(c2ccc(OCc3ccccc3)c(C(F)(F)F)c2)C2(O)CCCCC2)CC1 (centres unmarked) [Example 264, 1-[1-[4-(benzyloxy)-3-(trifluoromethyl)phenyl]-2-(4-methylpiperazin-1-yl)ethyl]cyclohexanol dihydrochloride] — higher, 89%
- OC1(C(CN2CCNCC2)c2ccc(-c3ccccc3Cl)cc2)CCCCC1 (centres unmarked) [Example 165, 1-[1-(2′-chloro-1,1′-biphenyl-4-yl)-2-piperazin-1-ylethyl]cyclohexanol dihydrochloride] — lower, 13%
- OC1(C(CN2CCNCC2)c2cccc(-c3ccccc3)c2)CCCCC1 (centres unmarked) [Example 136, 1-[1-(1,1′-biphenyl-3-yl)-2-piperazin-1-ylethyl]cyclohexanol dihydrochloride] — higher, 62%
- OC1(C(CN2CCNCC2)c2ccc(OCCc3ccccc3)cc2)CCCCC1 (centres unmarked) [Example 459, 1-{1-[4-(2-phenylethoxy)phenyl]-2-piperazin-1-ylethyl}cyclohexanol dihydrochloride] — higher, 58%
- CN1CCN(CC(c2ccc(-c3cccc(C#N)c3)cc2)C2(O)CCCCC2)CC1 (centres unmarked) [Example 177, 1-[1-(3′-cyano-1,1′-biphenyl-4-yl)-2-(4-methylpiperazin-1-yl)ethyl]cyclohexanol dihydrochloride] — higher, 54%

Same assay, conditions: 10 μM test compound (stated in the cell), [3H]NE uptake

`COc1ccc(C(CN2CCN(C)CC2)C2(O)CCCCC2)cc1-c1ccc(Cl)c(Cl)c1` (centres unmarked) [Example 255, 1-[1-(3′,4′-dichloro-6-methoxy-1,1′-biphenyl-3-yl)-2-(4-methylpiperazin-1-yl)ethyl]cyclohexanol dihydrochloride] gave an inhibition at 10 µM of 70.7%.

Same assay, conditions: [3H]NE uptake, test range 1 to 10,000 nM

Point of comparison: `CN1CCN(C[C@@H](c2ccc(OCc3ccccc3)cc2)C2(O)CCCCC2)CC1` [Example 412, 1-[(2R)-1-[4-(benzyloxy)phenyl]-2-(4-methylpiperazin-1-yl)ethyl]cyclohexanol dihydrochloride], EC50 0.138 µM. Against it:
- CN1CCN(CC(c2cccc(C#N)c2)C2(O)CCCCC2)CC1 (centres unmarked) [Example 161, 1-[1-(3-cyanophenyl)-2-(4-methylpiperazin-1-yl)ethyl]cyclohexanol dihydrochloride] — 1.6-fold higher, 0.22 µM
- CN1CCN(CC(c2ccc(OCc3ccccc3)c(OC(F)(F)F)c2)C2(O)CCCCC2)CC1 (centres unmarked) [Example 408, 1-[1-[4-(benzyloxy)-3-(trifluoromethoxy)phenyl]-2-(4-methylpiperazin-1-yl)ethyl]cyclohexanol dihydrochloride] — 2.9-fold higher, 0.398 µM
- OC1(C(CN2CCNCC2)c2cccc(-c3ccccc3)c2)CCCCC1 (centres unmarked) [Example 136, 1-[1-(1,1′-biphenyl-3-yl)-2-piperazin-1-ylethyl]cyclohexanol dihydrochloride] — 7.2-fold higher, 1 µM
